This experiment has as its target T1, rhFVIIa (Homo sapiens, UniProt P08709).
T1 construct: Typically, Factor VII is cleaved between amino acid residues 152 and 153 to yield Factor VIIa
T1 sequence (P08709 61-212 limits assumed): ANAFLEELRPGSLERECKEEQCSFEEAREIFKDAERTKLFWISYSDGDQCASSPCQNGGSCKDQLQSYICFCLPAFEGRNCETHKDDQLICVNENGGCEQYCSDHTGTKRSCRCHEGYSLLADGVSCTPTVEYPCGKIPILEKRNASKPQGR
T1 sequence (P08709 213-466 limits assumed): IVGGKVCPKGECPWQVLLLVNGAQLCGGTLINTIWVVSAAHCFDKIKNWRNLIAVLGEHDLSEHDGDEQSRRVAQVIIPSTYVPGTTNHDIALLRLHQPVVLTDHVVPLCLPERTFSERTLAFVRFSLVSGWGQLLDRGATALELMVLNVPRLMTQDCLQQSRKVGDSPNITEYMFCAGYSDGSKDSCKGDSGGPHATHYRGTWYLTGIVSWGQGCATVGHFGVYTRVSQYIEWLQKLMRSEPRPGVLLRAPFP
Briefly: Clot assay / one-stage coagulation assay of stored rhFVIIa formulations. It is filed as biochemical. As to conditions: 1 mM compound in 1.0 mg/mL rhFVIIa formulation, pH 6.5, stored at 5° C. and 25° C. From the text:
The biological activity of Factor VII (as Factor VIIa) in blood clotting derives from its ability to (i) bind to tissue factor (TF) and (ii) catalyze the proteolytic cleavage of Factor IX or Factor X to produce activated Factor IX or X (Factor IXa or Xa, respectively). Human Factor VIIa biological activity may be quantified by an assay measuring the ability of a preparation to promote blood clotting using Factor VII-deficient plasma and thromboplastin, as described, e.g., in U.S. Pat. No. 5,997,864. In this assay, biological activity is expressed as the reduction in clotting time relative to a control sample and is converted to “Factor VII units” by comparison with a pooled human […] standard containing 1 unit/ml Factor VII activity. […] Coagulation times (clotting times) are measured and compared to a standard curve using a reference standard in a parallel line assay. Alternatively, Factor VIIa biological activity may be quantified by (i) measuring the ability of Factor VIIa to produce Factor Xa in a system comprising TF embedded in a lipid membrane and Factor X. (Persson et al., J. Biol. Chem. 272:19919-19924, 1997); (ii) measuring Factor X hydrolysis in an aqueous system; (iii) measuring its physical binding to TF using an instrument based on surface plasmon resonance (Persson, FEBS Letts. 413:359-363, 1997) and (iv) measuring hydrolysis of a synthetic substrate. […]

Each structure is given as a SMILES string.

In the case of `COc1cccc([C@H](C)NC(=O)COC(=O)Nc2ccc(C(=N)N)cc2)c1` [Example 1, (S)-(4-carbamimidoylphenyl)carbamic acid [1-(3-methoxyphenyl)ethylcarbamoyl]methyl ester], the “stabilizing effect with respect to retention of activity of FVIIa” value is “marked stabilizing effect”.

The record behind these values is patent publication US20090130085A1, “Amidino-Compounds for Stabilizing Factor VII Polypeptide Formulations” (NOVO NORDISH HEALTHCARE AG, priority 2005, published 2009).
